Results on two compounds are retold here after patent US6284754A, “Pharmaceutical compositions containing 1-oleylazacycloheptan-2-one as enhancing agent of transport across biological membranes” (Schwarz Pharma AG, priority 1992, dated 2001).

The conditions of data set [1]: sole anti-inflammatory agent, topical on human or animal skin, about 10 to 100%; cited from earlier work.
Data set [2] has as its system human dermal fibroblasts. Description: Collagen contraction test (in vitro skin cell toxicity screening). Type of data set: cell-based. As to conditions: for IC50: Fibroblast, collagen sheets containing human dermal fibroblasts, read-out: IC50 (concentration at which shrinkage is 50% of the control); for toxicity (in words): compared with other azones. The method, then:
Skin toxicity tests were performed using the so-called collagen contraction test (Ponec et al. Journal of Pharmaceutical Sciences Vol. 78, No. 9, September 1989 and Vol. 79, No. 4, April 1990). […] The concentration of the agent, at which the shrinkage is 50% of the control, is taken as the IC50, the "50% inhibition level".

Data set [3] is described as follows: Freeze-fracture electron microscopy of pretreated stratum corneum. The conditions noted are these: 24 h pretreatment with solution in propylene glycol. Here is the method: For freeze-fracture electron microscopy stratum corneum samples were pretreated during 24 hours with solutions of azacycloheptanones in propylene glycol by applying about 200 microliter per cm^2 of the solution on the apical surface. Samples were then snapfrozen in melting nitrogen (method according to Umrath, J. Microsc. 101: 103 (1974)), cross-fractured (Holman et al., J. Invest. Dermatol, 94: 332 (1990) )in a Balzers Freeze Fracture apparatus (Balzers 400 BAF) at high vacuum. The fracture surfaces were then shadowed with Pt and overcast with a layer of carbon. Upon thawing, the samples were cleaned to obtain the surface replicas. These were scooped up on copper grids and examined in a transmission electron microscope (Philips 401, operated at 80 kV).

Data set [4] is described as follows: Differential thermal analysis (DTA) of pretreated stratum corneum. Also noted: species or system human. As to conditions: 24 h pretreatment in enhancer solution. The method, then: For differential thermal analysis human stratum corneum samples were pretreated (after prehydration) by submersion in the in test 1 described enhancer solutions for 24 hours, using untreated prehydrated stratum corneum samples as controls. Differential thermal analysis of ca. 20 mg samples was then performed on a differential scanning calorimeter (Maple).

Data set [5] in a line: Skin transport kinetics: nitroglycerin penetration through stratum corneum pretreated with 1-alkylazacycloheptan-2-ones. It is filed as in vitro ADME, human. As to conditions: compared with other 1-alkylazacycloheptan-2-ones. The method, then:
Human stratum corneum samples (18 mm in diameter) were obtained from fresh human skin (abdomen) by trypsinization. The stratum corneum samples were firstly prehydrated at 95% relative humidity (RH) over a saturated disodium hydrogen phosphate solution, then either submerged for 24 hours at 34° C. with 200 microliter of a 10% solution of an alkyl-aza-cycloheptan-one in propylene glycol by topical application, or directly used for a diffusion study.
The stratum corneum samples were subsequently sandwiched between silastic sheetings (127 micrometer thick silicone membranes, Dow Corning) which have been proven not to control the transport rate of the model drug used in the study, nitroglycerin. The thus obtained sandwiches were clamped in two-chamber flow-through diffusion cells and subjected to 24 hours diffusion experiments. The donor compartment having a volume of 16μl was flushed with a 0.05% nitroglycerin solution at a pumping rate of 35 ml/hr. […] Fractions of the acceptor fluid were collected at 1 hour intervals, and nitroglycerin was detected using a reversed phase HPLC procedure (chrom-sphere C18 100×30 mm column eluted at 22° C. (methanol:water=1:1) at a 1.1 ml/min flow rate (Spectroflow 400, Kratos.). The absorbance at 201 nm of the effluent was monitored on Waters 450 var. wavelength detector).

Take `CCCCCCCCCCCCN1CCCCCC1=O` [C12, 1-dodecylazacycloheptan-2-one, reference compound]: the “anti-inflammatory action, topical (in words)” value in data set [1] is “capable of temporarily reducing the signs and symptoms of inflammation”. The IC50 in data set [2] was 240 µM.
On to `CCCCCCCC/C=C\CCCCCCCCN1CCCCCC1=O` [C18, 1-oleylazacycloheptan-2-one], for which the “electron microscopic findings in stratum corneum (in words)” value in data set [3] is “penetrates deeply into the stratum corneum and induces the separation of a non-lamellar phase”. In data set [2], the IC50 was found to be 800 µM. In addition, the “toxicity (in words)” value in data set [2] (listed as 1-oleyl-azacyclo-heptan-2-one) was “moderately toxic”; in data set [2] (listed as 1-oleylazacycloheptan-2-one) it was “less toxic than the 1-dodecylazacycloheptan-2-one”; in data set [2] (listed as oleyl azone), “almost the least toxic azone among the effective enhancers (from C10 up to C18), and less toxic than C12 azone”. Further, the “influence on gel-liquid transition temperature and transition enthalpy (in words)” value in data set [4] is “strongly influences both the gel-liquid transition temperature of the intercellular lipids, and the corresponding transition enthalpy”. Further, the “transition enthalpy of the intercellular lipids (gel-liquid transition)” value in data set [4] (control 7 J.g-1) amounted to 3.3 J/g. The “enhancement of nitroglycerin transport / percutaneous absorption (in words)” value was “more potent enhancer for percutaneous absorption than the 1-alkylazacycloheptan-2-ones according to the prior art” in data set [5] and “by far the most potent enhancer with respect to nitroglycerin transport” in data set [5] (listed as oleyl derivative).
